# Assay results reported in ChEMBL document CHEMBL4334449, “Jorunnamycin A from Xestospongia sp. Suppresses Epithelial to Mesenchymal Transition and Sensitizes Anoikis in Human Lung Cancer Cells” (J Nat Prod, 2019).
# Calls of active or inactive are those of the source. No cut-off for these calls is given here.
# What was measured:
# NCI-H23 [1] = assay: Inhibition of epithelial-mesenchymal transition in human H23 cells harboring with p53 mutant under detachment conditions assessed as decrease in snail protein level 0.05 to 0.5 uM after 12 hrs by Western blot analysis; format: functional, cell-based
# NCI-H460 [2] = assay: Effect on total AKT protein level in human H460 cells under detachment conditions at 0.05 to 0.5 uM after 12 hrs by Western blot analysis; format: ADME, cell-based; settings: nci-h460, 12 h
# NCI-H460 [3] = assay: Induction of anoikis in human H460 cells under detachment conditions assessed as fold change at 0.5 uM after 24 hrs by Annexin V-FITC/propidium iodide staining-based flow cytometric analysis; format: functional
# NCI-H23 [4] = assay: Induction of anoikis in human H23 cells harboring with p53 mutant under detachment conditions assessed as effect on Bax level at 0.05 to 0.5 uM after 12 hrs by Western blot analysis; format: functional, cell-based
# NCI-H460 [5] = assay: Induction of apoptosis in human H460 cells under detachment conditions assessed as viable cells at 0.5 uM after 24 hrs by Annexin V-FITC/propidium iodide staining-based flow cytometric analysis (reference value: 60.43%); format: functional
# NCI-H23 [6] = assay: Antiproliferative activity against human H23 cells under detachment conditions assessed as reduction in cell viability at 0.05 to 0.5 uM up to 24 hrs by XTT assay; format: functional, cell-based
# NCI-H460 [7] = assay: Effect on total ERK protein level in human H460 cells under detachment conditions at 0.05 to 0.5 uM after 12 hrs by Western blot analysis; format: ADME, cell-based; settings: nci-h460, 12 h
# Homo sapiens [8] = species on record: Homo sapiens; assay: Inhibition of ERK phosphorylation in human H460 cells under detachment conditions at 0.05 to 0.5 uM after 12 hrs by Western blot analysis; format: cell-based
# NCI-H460 [9] = assay: Antiproliferative activity against human H460 cells under detachment conditions assessed as reduction in cell viability at 0.05 uM after 6 hrs by XTT assay; format: functional, cell-based
# NCI-H292 [10] = assay: Induction of apoptosis in human NCI-H292 cells under detachment conditions assessed as late apoptotic cells at 0.5 uM after 24 hrs by Annexin V-FITC/propidium iodide staining-based flow cytometric analysis (reference value: 28.21%); format: functional
# NCI-H23 [11] = assay: Inhibition of epithelial-mesenchymal transition in human H23 cells harboring with p53 mutant under detachment conditions assessed as increase in claudin-1 protein level 0.05 to 0.5 uM after 12 hrs by Western blot analysis; format: functional, cell-based
# NCI-H23 [12] = assay: Induction of apoptosis in human H23 cells under detachment conditions assessed as late apoptotic cells at 0.5 uM after 24 hrs by Annexin V-FITC/propidium iodide staining-based flow cytometric analysis (reference value: 2.82%); format: functional
# NCI-H460 [13] = assay: Induction of apoptosis in human H460 cells under detachment conditions assessed as accumulation of necrotic cells at 0.05 to 0.5 uM after 24 hrs by Hoechst 33342/propidium iodide staining based fluorescent microscopic method; format: functional, cell-based
# NCI-H460 [14] = assay: Inhibition of epithelial-mesenchymal transition in human H460 cells under detachment conditions assessed as decrease in snail protein level 0.05 to 0.5 uM after 12 hrs by Western blot analysis; format: functional, cell-based
# NCI-H23 [15] = assay: Inhibition of colony formation in human H23 cells under detachment conditions assessed as reduction in size of colonies at 0.1 to 0.5 uM after 14 days by microscopic method; format: functional, cell-based
# NCI-H292 [16] = assay: Induction of apoptosis in human NCI-H292 cells under detachment conditions assessed as necrotic cells at 0.5 uM after 24 hrs by Annexin V-FITC/propidium iodide staining-based flow cytometric analysis (reference value: 1.28%); format: functional
# NCI-H460 [17] = assay: Induction of apoptosis in human H460 cells under detachment conditions assessed as early apoptotic cells at 0.5 uM after 24 hrs by Annexin V-FITC/propidium iodide staining-based flow cytometric analysis (reference value: 22.55%); format: functional
# [18] = biological target: Serine/threonine-protein kinase AKT (Homo sapiens) (UniProt P31751+Q9Y243+P31749); assay: Inhibition of AKT phosphorylation in human H23 cells harboring with p53 mutant under detachment conditions at 0.05 to 0.5 uM after 12 hrs by Western blot analysis; format: cell-based
# Sequence of Serine/threonine-protein kinase AKT (Homo sapiens) (P31749 whole entry, looked up): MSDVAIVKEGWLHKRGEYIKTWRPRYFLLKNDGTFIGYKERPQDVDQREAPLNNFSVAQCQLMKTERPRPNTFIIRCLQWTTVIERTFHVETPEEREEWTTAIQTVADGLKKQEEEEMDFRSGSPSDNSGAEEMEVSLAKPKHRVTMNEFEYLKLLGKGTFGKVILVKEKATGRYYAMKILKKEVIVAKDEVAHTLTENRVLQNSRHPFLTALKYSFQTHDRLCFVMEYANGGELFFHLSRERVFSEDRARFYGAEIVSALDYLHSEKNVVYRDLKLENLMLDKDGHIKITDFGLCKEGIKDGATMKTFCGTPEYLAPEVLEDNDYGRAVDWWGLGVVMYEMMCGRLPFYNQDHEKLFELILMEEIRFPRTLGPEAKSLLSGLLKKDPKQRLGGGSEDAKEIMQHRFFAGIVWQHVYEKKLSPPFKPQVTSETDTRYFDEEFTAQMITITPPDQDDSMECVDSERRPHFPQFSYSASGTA
# Sequence of Serine/threonine-protein kinase AKT (Homo sapiens) (P31751 whole entry, looked up): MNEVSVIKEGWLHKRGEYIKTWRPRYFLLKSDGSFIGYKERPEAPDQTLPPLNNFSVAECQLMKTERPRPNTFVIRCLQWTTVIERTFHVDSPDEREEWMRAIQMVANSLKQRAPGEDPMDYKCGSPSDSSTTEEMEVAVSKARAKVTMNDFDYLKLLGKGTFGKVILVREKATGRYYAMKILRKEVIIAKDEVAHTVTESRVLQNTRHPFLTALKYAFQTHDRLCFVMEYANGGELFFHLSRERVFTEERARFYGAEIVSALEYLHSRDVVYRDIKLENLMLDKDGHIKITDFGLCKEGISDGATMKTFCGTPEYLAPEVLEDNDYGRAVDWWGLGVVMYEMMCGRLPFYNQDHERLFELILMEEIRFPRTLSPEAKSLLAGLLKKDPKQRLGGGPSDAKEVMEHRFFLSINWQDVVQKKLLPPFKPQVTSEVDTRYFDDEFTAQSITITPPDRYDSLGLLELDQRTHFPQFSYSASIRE
# Sequence of Serine/threonine-protein kinase AKT (Homo sapiens) (Q9Y243 whole entry, looked up): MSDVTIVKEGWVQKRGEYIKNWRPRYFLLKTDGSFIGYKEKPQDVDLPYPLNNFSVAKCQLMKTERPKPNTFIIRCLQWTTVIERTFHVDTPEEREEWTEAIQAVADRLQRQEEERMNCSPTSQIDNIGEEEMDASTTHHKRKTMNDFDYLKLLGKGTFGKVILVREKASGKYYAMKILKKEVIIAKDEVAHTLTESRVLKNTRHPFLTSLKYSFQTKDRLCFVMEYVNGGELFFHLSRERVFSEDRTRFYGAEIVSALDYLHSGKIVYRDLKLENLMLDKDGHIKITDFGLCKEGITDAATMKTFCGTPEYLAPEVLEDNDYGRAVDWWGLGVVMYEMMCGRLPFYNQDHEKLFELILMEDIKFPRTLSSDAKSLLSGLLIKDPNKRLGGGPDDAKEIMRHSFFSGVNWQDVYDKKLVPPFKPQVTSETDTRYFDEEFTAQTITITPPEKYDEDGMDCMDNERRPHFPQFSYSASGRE
# NCI-H460 [19] = assay: Induction of anoikis in human H460 cells under detachment conditions assessed as decrease in BCL-2 level at 0.1 to 0.5 uM after 12 hrs by Western blot analysis; format: functional, cell-based
# NCI-H460 [20] = assay: Inhibition of epithelial-mesenchymal transition in human H460 cells under detachment conditions assessed as increase in claudin-1 protein level 0.05 to 0.5 uM after 12 hrs by Western blot analysis; format: functional, cell-based
# NCI-H460 [21] = assay: Induction of apoptosis in human H460 cells under detachment conditions assessed as late apoptotic cells at 0.5 uM after 24 hrs by Annexin V-FITC/propidium iodide staining-based flow cytometric analysis (reference value: 15.44%); format: functional
# NCI-H460 [22] = assay: Antiproliferative activity against human H460 cells under detachment conditions assessed as reduction in cell viability at 0.1 to 0.5 uM after 3 hrs by XTT assay; format: functional, cell-based
# NCI-H460 [23] = assay: Induction of anoikis in human H460 cells under detachment conditions after 12 hrs by Western blot analysis; format: functional, cell-based
# NCI-H23 [24] = assay: Induction of anoikis in human H23 cells harboring with p53 mutant under detachment conditions assessed as effect on P53 level at 0.05 to 0.5 uM after 12 hrs by Western blot analysis; format: functional, cell-based
# Homo sapiens [25] = species on record: Homo sapiens; assay: Inhibition of ERK phosphorylation in human H23 cells harboring with p53 mutant under detachment conditions at 0.05 to 0.5 uM after 12 hrs by Western blot analysis; format: cell-based
# NCI-H292 [26] = assay: Inhibition of colony formation in human NCI-H292 cells under detachment conditions assessed as reduction in number of colonies at 0.1 to 0.5 uM after 14 days by microscopic method; format: functional, cell-based
# NCI-H23 [27] = assay: Down regulation of caveolin-1 human H23 cells harboring with p53 mutant under detachment conditions at 0.05 to 0.5 uM after 12 hrs by Western blot analysis; format: functional, cell-based
# NCI-H23 [28] = assay: Induction of anoikis in human H23 cells harboring with p53 mutant under detachment conditions assessed as decrease in BCL-2 level at 0.05 to 0.5 uM after 12 hrs by Western blot analysis; format: functional, cell-based
# NCI-H292 [29] = assay: Induction of apoptosis in human NCI-H292 cells under detachment conditions assessed as early apoptotic cells at 0.5 uM after 24 hrs by Annexin V-FITC/propidium iodide staining-based flow cytometric analysis (reference value: 29.96%); format: functional
structure (smiles),measurement,setting,value
COC1=C(C)C(=O)C2=C(C1=O)[C@@H]1[C@@H]3CC4=C(C(=O)C(OC)=C(C)C4=O)[C@H](CO)N3[C@@H](C#N)[C@H](C2)N1C [JOURNNAMYCIN A],inhibition,NCI-H23 [1],Active
same,Activity,NCI-H460 [2],Non-Toxic
same,Activity,NCI-H460 [3],1.39%
same,Activity,NCI-H23 [4],inactive
same,fold change (FC),NCI-H460 [5],2
same,Activity,NCI-H23 [6],Active
same,Activity,NCI-H460 [7],Non-Toxic
same,inhibition,Homo sapiens [8],Active
same,Activity,NCI-H460 [9],Active
same,Activity,NCI-H292 [10],28.13%
same,inhibition,NCI-H23 [11],Active
same,Activity,NCI-H23 [12],17.1%
same,Activity,NCI-H460 [13],inactive
same,inhibition,NCI-H460 [14],Active
same,inhibition,NCI-H23 [15],Active
same,Activity,NCI-H292 [16],0.4%
same,Activity,NCI-H460 [17],26.4%
same,inhibition,[18],Active
same,Activity,NCI-H460 [19],Active
same,inhibition,NCI-H460 [20],Active
same,Activity,NCI-H460 [21],48.01%
same,Activity,NCI-H460 [22],Active
same,Activity,NCI-H460 [23],Dose-dependent effect
same,Activity,NCI-H23 [24],inactive
same,inhibition,Homo sapiens [25],Active
same,inhibition,NCI-H292 [26],Active
same,Activity,NCI-H23 [27],Active
same,Activity,NCI-H23 [28],Active
same,Activity,NCI-H292 [29],45.68%
